Where two headings read alike, the source gives them in different places.
Legend:
[1] = tested on: 501Mel-XP cells (Vemurafenib-resistant); assay: Kinase inhibitor library screening, PrestoBlue cell viability, 1 or 10 μM, 72 h; conditions: 501Mel XP, 72 h
[2] = tested on: IGR37-GP cells (Dabrafenib-resistant); assay: as above; conditions: IGR37 GP, 72 h
[3] = tested on: 501Mel-GP cells (Dabrafenib-resistant); assay: as above; conditions: 501Mel GP, 72 h
[4] = tested on: A375-GP cells (Dabrafenib-resistant); assay: as above; conditions: A375 GP, 72 h
[5] = tested on: A375-XP cells (Vemurafenib-resistant); assay: as above; conditions: A375 XP, 72 h
[6] = tested on: IGR37-XP cells (Vemurafenib-resistant); assay: as above; conditions: IGR37 XP, 72 h
IGR37 cells (parental) = assay: as above; conditions: IGR37 Parental, 72 h
A375 cells (parental) [7] = assay: as above; conditions: A375 Parental, 72 h
501Mel cells (parental) = assay: as above; conditions: 501Mel Parental, 72 h
Outline: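 Cells are treated with each inhibitor at 1 or 10 μM, incubated 72 h, then PrestoBlue reagent is added and the plate is read. Data are normalised to untreated cells.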

[8] = tested on: A375-GP cells (Dabrafenib-resistant); assay: Dose-response curves and IC50, PrestoBlue cell viability, 72 h; format: cell-based, human; conditions: n.e. = did not suppress growth below 50% in the tested concentration range, read-out: Half-maximal inhibitory concentration value (IC50), Mean
[9] = tested on: A375-XP cells (Vemurafenib-resistant); assay: as above; format: cell-based, human; conditions: n.e. = did not suppress growth below 50% in the tested concentration range, read-out: Half-maximal inhibitory concentration value (IC50), Mean
A375 cells (parental) [10] = assay: as above; format: cell-based, human; conditions: read-out: Half-maximal inhibitory concentration value (IC50), Mean
[11] = tested on: IGR37-GP cells (Dabrafenib-resistant); assay: as above; conditions: Homo sapiens, 72 h, read-out: Half-maximal inhibitory concentration (IC50)
Procedure: All inhibitors used in this study were purchased from Selleck Chemicals (Houston, USA). They were dissolved in DMSO to a stock concentration of 10 mM according to the manufacturer’s instructions and stored at − 80 °C. […] Cell viability was measured with the PrestoBlue Cell Viability Reagent (ThermoFisher Scientific) on a CLARIOstar Monochromator microplate reader (BMG Labtech). Using the GraphPad Prism v5.04 software, the half-maximal inhibitor concentration values (IC50) were determined from the curve using the nonlinear log (inhibitor) vs response-variable slope (four parameters) equation. […] The IC50’s were determined for 3 biological replicates and are listed with their standard deviations.
Values represent the mean of at least three biological replicates; one representative curve of at least 3 biological replicates is depicted. _XP: cells resistant to Vemurafenib (red), _GP: cells resistant to Dabrafenib (green).

[12] = n.e. = did not suppress growth below 50% in the tested concentration range
[13] = Homo sapiens, A-375, n.e. = did not suppress growth below 50% in the tested concentration range

Compound | cell viability (kinase inhibitor library screening) ([1]; 1μΜ) [%] | cell viability (kinase inhibitor library screening) ([1]; 10μΜ) [%] | cell viability (kinase inhibitor library screening) ([2]; 1μΜ) [%] | cell viability (kinase inhibitor library screening) ([2]; 10μΜ) [%] | cell viability (kinase inhibitor library screening) ([3]; 1μΜ) [%] | cell viability (kinase inhibitor library screening) ([3]; 10μΜ) [%] | cell viability (kinase inhibitor library screening) ([4]; 1μΜ) [%] | cell viability (kinase inhibitor library screening) ([4]; 10μΜ) [%] | cell viability (kinase inhibitor library screening) ([5]; 1μΜ) [%] | cell viability (kinase inhibitor library screening) ([5]; 10μΜ) [%] | cell viability (kinase inhibitor library screening) ([6]; 1μΜ) [%] | cell viability (kinase inhibitor library screening) ([6]; 10μΜ) [%] | cell viability (kinase inhibitor library screening) (IGR37 cells (parental); 1μΜ) [%] | cell viability (kinase inhibitor library screening) (IGR37 cells (parental); 10μΜ) [%] | cell viability (kinase inhibitor library screening) (A375 cells (parental) [7]; 10μΜ) [%] | cell viability (kinase inhibitor library screening) (A375 cells (parental) [7]; 1μΜ) [%] | cell viability (kinase inhibitor library screening) (501Mel cells (parental); 1μΜ) [%] | cell viability (kinase inhibitor library screening) (501Mel cells (parental); 10μΜ) [%] | IC50 [8] [nM] | IC50 [9] [nM] | also measured
Nc1ncnc2c1c(-c1cnc3[nH]ccc3c1)nn2C1CCCC1 [PP-121, reference compound] | 51.0 | 2.4 | 69.2 | 9.1 | 44.0 | 5.9 | 36.1 | 8.1 | 37.9 | 4.5 | 60.1 | 4.3 | 75.3 | 14.0 | 6.5 | 45.3 | 55.7 | 3.0 | 417 | 648 | IC50 (A375 cells (parental) [10]; [12]): 550 nM
CCS(=O)(=O)c1cccc(-c2cc(C(=O)NC3CCN(C)CC3)c(C)c3[nH]c4ncc(C)cc4c23)c1 [TAK-901, reference compound] | 83.2 | 25.7 | 97.2 | 9.5 | 88.7 | 29.0 | 41.6 | 8.5 | 52.1 | 9.6 | 73.0 | 4.0 | 93.0 | 30.2 | 7.6 | 45.8 | 82.7 | 12.7 |  |  | IC50 ([8]; Homo sapiens): 338 nM; IC50 ([9]; Homo sapiens): 472 nM; IC50 (A375 cells (parental) [10]; [13]): 398 nM
CC(=O)Nc1cccc(-n2c(=O)n(C3CC3)c(=O)c3c(Nc4ccc(I)cc4F)n(C)c(=O)c(C)c32)c1 [Trametinib] |  |  |  |  |  |  |  |  |  |  |  |  |  |  |  |  |  |  |  |  | IC50 [11]: 0.7 nM; IC50 ([8]; Homo sapiens): 1.2 nM; IC50 ([9]; Homo sapiens): 2.4 nM; IC50 (A375 cells (parental) [10]; [13]): 0.4 nM
CCC[C@H](NC(=O)/C(C#N)=C/c1cccc(Br)n1)c1ccccc1 [WP1130, reference compound] |  |  |  |  |  |  |  |  |  |  |  |  |  |  |  |  |  |  | 1580 | 1550 | cell viability, 501Mel XP, 1μΜ ([1]; 1μΜ, in %): 103.9; cell viability, 501Mel XP, 10μΜ ([1]; 10μΜ, in %): -0.185; cell viability, IGR37 GP, 10μΜ ([2]; 10μΜ): 1.9%; cell viability, IGR37 GP, 1μΜ ([2]; 1μΜ, in %): 96.2; cell viability, 501Mel GP, 1μΜ ([3]; 1μΜ, in %): 104.8; cell viability, 501Mel GP, 10μΜ ([3]; 10μΜ, in %): -0.156; cell viability, A375 GP, 1μΜ ([4]; 1μΜ, in %): 87.1; cell viability, A375 GP, 10μΜ ([4]; 10μΜ, in %): 1.1; cell viability, A375 XP, 1μΜ ([5]; 1μΜ, in %): 57.6; cell viability, A375 XP, 10μΜ ([5]; 10μΜ, in %): 0.429; cell viability, IGR37 XP, 10μΜ ([6]; 10μΜ): 1.1%; cell viability, IGR37 XP, 1μΜ ([6]; 1μΜ, in %): 99.1; cell viability, IGR37 Parental, 1μΜ (IGR37 cells (parental); 1μΜ, in %): 99.4; cell viability, IGR37 Parental, 10μΜ (IGR37 cells (parental); 10μΜ, in %): -1.6; cell viability, A375 Parental, 1μΜ (A375 cells (parental) [7]; 1μΜ, in %): 89.3; cell viability, A375 Parental, 10μΜ (A375 cells (parental) [7]; 10μΜ, in %): 0.545; cell viability, 501Mel Parental, 1μΜ (501Mel cells (parental); 1μΜ, in %): 93.7; cell viability, 501Mel Parental, 10μΜ (501Mel cells (parental); 10μΜ, in %): 0.6; IC50 (A375 cells (parental) [10]; [12]): 1620 nM

From paper PMC6364417, “Kinase inhibitor library screening identifies synergistic drug combinations effective in sensitive and resistant melanoma cells” (Journal of Experimental & Clinical Cancer Research : CR, 2019)
